Experimental data taken from paper PMC11374673, “Discovery of isoquinoline sulfonamides as allosteric gyrase inhibitors with activity against fluoroquinolone-resistant bacteria” (Nature Chemistry, 2024).
Entries after “also recorded” stand apart in the source; their conditions may differ.

Tests used:
E. coli BW25113 = assay: Bacterial cytological profiling (BCP); format: cell-based, Escherichia coli; set-up: DAPI total area / DAPI nucleoid area / DIC area / DIC curvature / DIC feret / DIC length / DIC orientation: unit not given here; conditions: for DAPI aspect ratio / DAPI circularity / DAPI nucleoid area / DAPI nucleoids / DAPI perimeter / DAPI roundness / DAPI solidity / DAPI total area / DIC area / DIC aspect ratio / DIC circularity / DIC curvature / DIC feret / DIC length / DIC orientation / DIC perimeter / DIC roundness / DIC sinuosity / DIC solidity / DIC width / Decondensation / DIC angularity / DAPI intensity / SYTOX Green intensity: BCP; for morphological phenotype: BCP microscopy, 6.25 µM; for DIC angularity: 2 h, AMP 12.5, RIF 12.5, TET 6.25, CIP 0.0625, LEI-801 6.25, LEI-800 6.25 µM, average ± SD of 3 replicates; for DAPI intensity / SYTOX Green intensity: standardized to DMSO control
Procedure: Overnight E. coli BW25113 cultures were diluted 1:100 in fresh LB medium in a 100 ml Erlenmeyer flask and incubated at 120 r.p.m. and 37 °C. When OD600 >0.2, the cultures were diluted to OD600 of 0.1 in fresh LB medium with a final volume of 200 µl in a 2 ml Eppendorf tube. The appropriate antibiotic or control treatment was applied and the samples were incubated at 200 r.p.m. and 30 °C for 2 h. Subsequently, 4,6-diamidino-2-phenylindole (DAPI) (2 µg ml^−1), FM4-64 (2 µg ml^−1) and SYTOX Green (0.5 µM) were added to reach the desired concentration and the samples were incubated a further 10 min. The samples were then centrifuged at 3,300g for 50 s and the pellets resuspended in half the original volume. From this suspension, 5 µl was spotted onto a 2.0% agarose pad for microscopy.
Microscopy was performed on a Zeiss Axio Observer Z1/7 inverted microscope.
For the qualitative assessment of the bacterial morphology, the acquired images were first pre-processed in ImageJ (v1.53m)[47]. Thereafter the brightness and contrast were adjusted to allow the clearest visual inspection of the particular phenotype. For the quantitative BCP, DIC images were first pre-processed and then a random forest classifier was trained with Illastik (v1.3.3)[48] to generate a segmented image. These binary masks were then combined together with the original DIC image and processed with the ImageJ plugin MicrobeJ (v 5.13l)[49]. MicrobeJ generated cell outlines and performed measurements on cell shape accordingly. The recorded cell outlines produced by MicrobeJ were exported and used as a guide to characterize the DNA shape within each bacterium using a custom-made ImageJ macro (Appendix II). DAPI and SYTOX Green intensity were measured on raw images in a similar manner. Then, by hand, polygons were drawn that excluded bacteria to determine background intensity. After background correction the intensity was standardized to the DMSO control within the same biological replicate. For PCA, the BCP assay was executed for three independently biological replicates. During each experiment, images were acquired until 24 or more bacteria in total had been observed. Following feature extraction for each replicate, principal component analysis was performed using GraphPad Prism (v9.0.0) using multiple variable analysis with standardized data. Principal components (PCs) were selected based on the per cent of total explained variance (minimum 80%).

[1] = target: T1, E. coli GyrA S172A/GyrB gyrase (Escherichia coli, UniProt P0AES4, S172A); assay: Gyrase supercoiling inhibition, GyrA S172A variant; format: biochemical
T1 construct: represents the first full-length E. coli gyrase structure in complex with an intact DNA molecule; 10xHis; 2xStrep (Twin-Strep); made in house
Procedure: (§1) Of this stock solution, 27 µl was aliquoted for each reaction in 1.5 ml Eppendorf tubes and supplemented with 0.6 µl of the appropriate compound dilution or corresponding solvent with a final DMSO concentration of 2%. The reactions were started with 3 µl of enzyme (1 U for WT gyrase retrieved from Inspiralis Limited or 25–30 nM gyrase variants purified in house) in dilution buffer (50 mM Tris–HCl (pH 7.5), 100 mM KCl, 2 mM DTT, 1 mM EDTA and 50% (wt/vol) glycerol) for a final volume of 30 µl. Reactions were run at 37 °C for 30 min and stopped with the addition of 30 µl STEB buffer (40% (wt/vol) sucrose, 100 mM Tris–HCl pH 8, 100 mM EDTA, 0.5 mg ml^−1 bromophenol blue) and 30 µl of a chloroform:isoamyl alcohol solution (24:1 vol/vol). After brief vortexing and centrifugation at 2,300g for 1 min, 20 µl of the aqueous phase was loaded onto 1% (wt/vol) agarose gels in TAE (Tris–acetate […]) gel. The gels were run at 85 V for 2 h followed by staining (15 min) in 1 µg ml^−1 ethidium bromide and destaining (5–10 min) in water. DNA was visualized (602/50, UV Trans, auto optimal exposure) with a ChemiDoc MP (Bio-Rad Laboratories Inc., equipped with ImageLab Touch Software v2.0.0.27) and the percentage of supercoiled DNA relative to the total amount material per lane was determined with ImageLab 6.1 software (Bio-Rad Laboratories Inc.) or ImageJ[47] software. […]

E. coli gyrase = E. coli gyrase (Escherichia coli, UniProt P0AES4); assay: ATP-independent relaxation inhibition; format: biochemical; conditions: 200 nM gyrase
Procedure: E. coli relaxation inhibition assays were conducted in a similar manner to supercoiling inhibition assays with the following modifications: spermidine and ATP were omitted from the assay buffer, supercoiled plasmid (pBR322) was used as DNA substrate and 200 nM E. coli gyrase was added to each reaction. After stopping each reaction with STEB, 3 µl 2% SDS was added and tubes were vigorously vortexed before loading the aqueous phase onto the gel.

(UniProt Q2FCU6) = assay: Gyrase supercoiling inhibition; format: biochemical, Acinetobacter baumannii; conditions: read-out: IC50 supercoiling, A. baumannii gyrase
Procedure: as §1

Row | Structure (SMILES) | PCA clustering of 24 BCP features (E. coli BW25113) | DAPI aspect ratio (E. coli BW25113) | DAPI circularity (E. coli BW25113) | DAPI nucleoid area (E. coli BW25113) | DAPI nucleoids (E. coli BW25113) | DAPI perimeter (E. coli BW25113) | DAPI roundness (E. coli BW25113) | DAPI solidity (E. coli BW25113) | DAPI total area (E. coli BW25113) | DIC area (E. coli BW25113) | DIC aspect ratio (E. coli BW25113) | DIC circularity (E. coli BW25113) | DIC curvature (E. coli BW25113) | DIC feret (E. coli BW25113) | DIC length (E. coli BW25113) | DIC orientation (E. coli BW25113) | DIC perimeter (E. coli BW25113) | DIC roundness (E. coli BW25113) | DIC sinuosity (E. coli BW25113) | DIC solidity (E. coli BW25113) | other results
1 | O=S(=O)(NC[C@H]1CC[C@@H](c2ccc(-c3ccc(F)nc3)cc2)N1)c1cccc2cnccc12 [LEI-801] | clustered with DMSO | 2.179 ± 0.107 | 0.723 ± 0.016 | 2.366 ± 0.636 | 1.288 ± 0.064 | 6.375 ± 0.894 | 0.484 ± 0.024 | 0.916 ± 0.005 | 2.897 ± 0.869 | 3.335 ± 0.139 | 2.661 ± 0.151 | 0.699 ± 0.026 | 0.150 ± 0.018 | 3.227 ± 0.127 | 3.253 ± 0.128 | 96.714 ± 3.816 | 7.768 ± 0.245 | 0.422 ± 0.025 | 1.026 ± 0.005 | 0.962 ± 0.004 | DIC width (E. coli BW25113): 1.085 ± 0.030; Decondensation (E. coli BW25113): 0.863 ± 0.226; morphological phenotype (E. coli BW25113): phenotype that is consistent with the DMSO control; DIC angularity (E. coli BW25113): 0.123 ± 0.008; DAPI intensity (E. coli BW25113): 1.156 ± 0.345; SYTOX Green intensity (E. coli BW25113): 1.000 ± 0.284; IC50 [1]: 0.36 µM
2 | O=S(=O)(NC[C@@H]1CC[C@H](c2ccc(-c3cccnc3)cc2)N1)c1cccc2cnccc12 [LEI-800] | formed a cluster by itself | 5.858 ± 1.821 | 0.365 ± 0.084 | 6.481 ± 2.006 | 1.368 ± 0.202 | 16.318 ± 5.417 | 0.220 ± 0.035 | 0.808 ± 0.077 | 8.438 ± 3.339 | 13.636 ± 0.225 | 6.808 ± 0.283 | 0.292 ± 0.021 | 0.034 ± 0.003 | 11.758 ± 0.377 | 11.910 ± 0.403 | 88.418 ± 18.119 | 25.156 ± 0.728 | 0.139 ± 0.012 | 1.021 ± 0.003 | 0.793 ± 0.033 | DIC width (E. coli BW25113): 1.163 ± 0.063; Decondensation (E. coli BW25113): 0.616 ± 0.234; morphological phenotype (E. coli BW25113): elongation of the bacteria and condensation of the DNA; also recorded: phenotype resembling the CIP and TET morphological profile; DIC angularity (E. coli BW25113): 0.076 ± 0.010; DAPI intensity (E. coli BW25113): 0.513 ± 0.191; SYTOX Green intensity (E. coli BW25113): 2.259 ± 1.119; ATP-independent supercoiling relaxation (E. coli gyrase): inhibited; IC50 [1]: 0.086 µM; IC50 ((UniProt Q2FCU6)): 0.103 µM
